Patent US20240425807A1, “MANUFACTURING METHOD OF MIXED POWDER, MIXED POWDER, POWDER, AND POWDER MEDIUM” (FUJIFILM Corporation, priority 2022, published 2024)

Legend:
[1] = Liquid property (pH) of solution obtained in solubility evaluation; type: physicochemical; details: pH of the solution obtained in the solubility evaluation (tyrosine 0.44 g/L in distilled water)
Procedure: A pH of the solution obtained in the evaluation of solubility was evaluated. Liquid property was evaluated according to the following evaluation standard.

[2] = Overall evaluation based on solubility and liquid property; type: physicochemical; details: combined from solubility and liquid property

With `N[C@@H](Cc1ccc(O)cc1)C(=O)O` [Comparative Example 1, L-tyrosine] the Liquid property [1] was “Neutral (pH of 6.0 to 8.5)” and the Overall evaluation [2] was “E (the solution was still turbid even after 1 hour, and/or the pH was other than neutral)”.
